Data reported in article PMC10895676, “Antiviral Activity of Lipophilic Nucleoside Tetraphosphate Compounds” (Journal of Medicinal Chemistry, 2024).
Entries after “also recorded” stand apart in the source; their conditions may differ.

Molecular target: T1, human DNA polymerase α (Homo sapiens, UniProt P09884)
T1 construct: purchased Chimerx
T1 sequence (P09884 1-1462): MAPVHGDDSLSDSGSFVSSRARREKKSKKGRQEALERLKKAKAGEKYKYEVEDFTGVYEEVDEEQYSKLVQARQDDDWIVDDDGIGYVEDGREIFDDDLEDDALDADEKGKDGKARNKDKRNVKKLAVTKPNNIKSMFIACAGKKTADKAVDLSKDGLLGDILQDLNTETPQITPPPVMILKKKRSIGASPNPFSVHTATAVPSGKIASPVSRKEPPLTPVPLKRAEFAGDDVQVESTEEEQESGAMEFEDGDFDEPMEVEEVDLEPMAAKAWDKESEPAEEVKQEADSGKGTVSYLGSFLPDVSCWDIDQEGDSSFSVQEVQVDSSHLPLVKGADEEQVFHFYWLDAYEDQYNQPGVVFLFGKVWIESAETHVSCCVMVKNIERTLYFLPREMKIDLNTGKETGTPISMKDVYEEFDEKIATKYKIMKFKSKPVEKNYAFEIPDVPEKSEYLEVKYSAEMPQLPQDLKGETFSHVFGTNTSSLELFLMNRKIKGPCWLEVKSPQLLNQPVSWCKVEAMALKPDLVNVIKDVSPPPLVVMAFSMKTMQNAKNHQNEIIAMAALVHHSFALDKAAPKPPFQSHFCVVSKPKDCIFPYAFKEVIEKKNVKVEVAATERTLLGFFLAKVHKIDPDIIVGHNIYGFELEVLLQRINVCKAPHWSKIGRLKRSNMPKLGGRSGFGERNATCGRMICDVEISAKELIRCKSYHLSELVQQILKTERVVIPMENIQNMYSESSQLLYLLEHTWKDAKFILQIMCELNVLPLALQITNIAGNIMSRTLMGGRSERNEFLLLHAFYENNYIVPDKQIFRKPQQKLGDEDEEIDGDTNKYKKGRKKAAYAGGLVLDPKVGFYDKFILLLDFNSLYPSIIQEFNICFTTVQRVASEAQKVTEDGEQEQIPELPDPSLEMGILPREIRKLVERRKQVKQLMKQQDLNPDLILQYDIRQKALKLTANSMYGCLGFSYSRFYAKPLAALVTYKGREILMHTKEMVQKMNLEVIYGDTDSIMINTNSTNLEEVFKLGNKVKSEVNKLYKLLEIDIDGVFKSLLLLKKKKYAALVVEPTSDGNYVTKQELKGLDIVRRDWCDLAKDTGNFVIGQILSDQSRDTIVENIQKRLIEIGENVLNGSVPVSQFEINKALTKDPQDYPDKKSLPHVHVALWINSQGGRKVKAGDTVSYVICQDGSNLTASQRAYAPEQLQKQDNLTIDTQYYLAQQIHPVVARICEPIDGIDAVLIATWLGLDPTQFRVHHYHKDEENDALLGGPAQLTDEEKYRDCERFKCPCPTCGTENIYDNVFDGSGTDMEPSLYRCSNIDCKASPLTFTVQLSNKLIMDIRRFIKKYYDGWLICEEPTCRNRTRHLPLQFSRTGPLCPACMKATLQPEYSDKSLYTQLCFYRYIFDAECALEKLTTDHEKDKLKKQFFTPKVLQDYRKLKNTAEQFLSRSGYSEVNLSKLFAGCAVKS
Test: Primer extension assay using human DNA polymerase α
Type: biochemical
Conditions: 60 min, 2 U, 37 °C
From the text: Encouraged by the previously obtained results that γ-phosphate-modified-d4TDPs 3, γ-monoalkylated d4TTP derivatives as well as d4TDP were accepted as substrates by HIV-RT,[49],[50],[55],[59]−[61] δ-dialkylated d4T tetraphosphate analogues 4,5, δ-monoalkylated d4T tetraphosphate analogues 20 and 24 and d4T4P were investigated in primer extension assays in the presence of HIV-RT or the three different human DNA polymerases α, β and γ. D4TTP (for the compounds 4–9) and the natural thymidine triphosphate (TTP) were used as reference compounds.
Figure 6 Primer extension assay using HIV-RT (A), human polymerases α (B), β (C), and γ (D). (Figure 6A). Primer extension assay using HIV-RT (30 min, 6U). Lane 1: (+) dATP, dCTP, dGTP, and TTP with HIV-RT. Lane 2: (−) dATP, dCTP, dGTP, and TTP without HIV-RT. Lane 3: TTP. […] Lane 5: δ-(C4; C18)-d4T4P 4d. […] Lane 7: δ-(C18)-d4T4P 20. Lane 8: δ-C-(C18)-d4T4P 24. Lane 9: d4T4P. Lane 10: d4TTP. Lane 11: d4TDP. HIV-RT assay reaction conditions: 50 mM Tris–HCl (pH 8.6), 10 mM MgCl2, 40 mM KCl, 250 μM dNTPs, HIV-RT (6 U), 0.20 μM DNA hybrid, primer-template-hybrid 0.32 mM in a reaction volume of 10 μL, incubated at 37 °C for 0.5 h, 80 °C for 7 min. Primer extension assays: 50 mA, 45 w for 4 h. (Figure 6B). For human DNA polymerase α assay (60 min, 2 U): Lane 1: (+) dATP, dCTP, dGTP, and TTP with human polymerase α. Lane 2: (−) dATP, dCTP, dGTP, and TTP without human polymerase α. Lane 3: TTP. […] Lane 5: δ-(C4; C18)-d4T4P 4d. […] Lane 7: δ-(C18)-d4T4P 20. Lane 8: δ-C-(C18)-d4T4P 24. Lane 9: d4T4P. Lane 10: d4TTP. Human DNA polymerase α assay conditions: 60 mM Tris–HCl (pH 8), 5 mM Mg(OAc)2, 100 mM KCl, 1.0 mM dithiothreitol, 0.1 mM spermine, 0.01% (w/v) bovine serum albumin, 250 μM dNTPs, 2 U human polymerase α, 0.20 μM DNA hybrid, and primer-template-hybrid 0.32 mM in a reaction volume of 10 μL, incubated at 37 °C for 1 h, 80 °C for 7 min. Primer extension assays: 50 mA, 45 w for 3 h. (Figure 6C). For human DNA polymerase β assay (60 min, 2 U): Lane 1: (+) dATP, dCTP, dGTP, and TTP with human polymerase β. […]

Structure (SMILES) | substrate for human DNA polymerase α (primer extension)
CCCCCCCCCCCCCCCCCCOP(=O)(O)OP(=O)(O)OP(=O)(O)OP(=O)(O)OC[C@@H]1C=C[C@H](n2cc(C)c(=O)[nH]c2=O)O1 [compound 20, δ-(Alkyl-C18)-d4T4P] | nonsubstrates
CCCCCCCCCCCCCCCCCCP(=O)(O)OP(=O)(O)OP(=O)(O)OP(=O)(O)OC[C@@H]1C=C[C@H](n2cc(C)c(=O)[nH]c2=O)O1 [compound 24, δ-C-(Alkyl-C18)-d4T4P] | nonsubstrates
Cc1cn([C@H]2C=C[C@@H](COP(=O)(O)OP(=O)(O)OP(=O)(O)OP(=O)(O)O)O2)c(=O)[nH]c1=O [d4T4P, 2′,3′-didehydro-2′,3′-dideoxythymidine-5′-tetraphosphate] | nonsubstrates; also recorded: not a substrate
